Drawing on ChEMBL document CHEMBL1149359, “Total synthesis and biological evaluation of ustiloxin natural products and two analogs” (Bioorg Med Chem Lett, 2006), this text covers IC50 for six compounds.

Structures are written as SMILES. pIC50: −log10 of the molar value.

One assay deals with Tubulin. Kind of assay: Inhibition of tubulin polymerization. Type of assay: protein-complex assay, Homo sapiens.
One may read the pIC50 as the negative decadic logarithm of the IC50, by convention in mol/L. A high value points to a low IC50. Consider `CC[C@@H](C)[C@@H]1NC(=O)[C@@H](NC)[C@H](O)c2ccc(O)c(c2)O[C@](C)(CC)[C@@H](C(=O)NCC(=O)O)NC1=O`, for which the negative logarithm of the IC50 (pIC50) is 5.32.

`CC[C@@]1(C)Oc2cc(ccc2OC)[C@@H](O)[C@H](NC)C(=O)N[C@@H](C(C)C)C(=O)N[C@@H]1C(=O)NCC(=O)O` gave a pIC50 of less than 4.40.

For `CC[C@@]1(C)Oc2cc(c([S+]([O-])C[C@@H](O)C[C@H](N)C(=O)O)cc2O)[C@@H](O)[C@H](NC)C(=O)N[C@@H](C(C)C)C(=O)N[C@@H]1C(=O)NCC(=O)O` (some centres not stated) [USTILOXIN A], the pIC50 is 5.96.

For `CC[C@@]1(C)Oc2cc(ccc2O)[C@@H](O)[C@H](NC)C(=O)N[C@@H](C(C)C)C(=O)N[C@@H]1C(=O)NCC(=O)O` [USTILOXIN D], the pIC50 is 5.82.

Turning to `CC[C@@]1(C)Oc2cc(ccc2O)[C@@H](O)[C@H](NC)C(=O)N[C@@H](C)C(=O)N[C@@H]1C(=O)NCC(=O)O` [USTILOXIN F], the pIC50 was 5.09.

The test system of a further assay is CA46. As to the kind of experiment: Cytotoxicity against human CA46 cell line. It counts as functional, cell-based.
In turn, `CC[C@H](C)[C@@H]([C@@H](CC(=O)N1CCC[C@H]1[C@H](OC)[C@@H](C)C(=O)N[C@@H](Cc1ccccc1)c1nccs1)OC)N(C)C(=O)[C@@H](NC(=O)[C@H](C(C)C)N(C)C)C(C)C` [DOLASTATIN-10] showed a pIC50 of 7.52.

In turn, `CC[C@@]1(C)Oc2cc(c([S+]([O-])C[C@@H](O)C[C@H](N)C(=O)O)cc2O)[C@@H](O)[C@H](NC)C(=O)N[C@@H](C(C)C)C(=O)N[C@@H]1C(=O)NCC(=O)O` (some centres not stated) [USTILOXIN A] gave a negative-log IC50 (pIC50) of 5.60.
